Experimental data reported in ChEMBL document CHEMBL5120855, “Potent 2,3-dihydrophthalazine-1,4-dione derivatives as dual inhibitors for mono-ADP-ribosyltransferases PARP10 and PARP15” (Eur J Med Chem, 2022).

Key:
[1] = tested on: HEK-293T; assay: Cytotoxicity against HEK293T cells assessed as reduction in cell viability at 10 uM measured after 24 hrs by WST-1 assay; format: toxicity, cell-based; details: human
[2] = target: Poly [ADP-ribose] polymerase 2 (Homo sapiens, UniProt Q9UGN5); assay: Inhibition of human PARP2 using NAD+ as substrate incubated for 10 mins by fluorescence based analysis
Chain of Poly [ADP-ribose] polymerase 2 (Q9UGN5 whole entry, the tested form may be a part): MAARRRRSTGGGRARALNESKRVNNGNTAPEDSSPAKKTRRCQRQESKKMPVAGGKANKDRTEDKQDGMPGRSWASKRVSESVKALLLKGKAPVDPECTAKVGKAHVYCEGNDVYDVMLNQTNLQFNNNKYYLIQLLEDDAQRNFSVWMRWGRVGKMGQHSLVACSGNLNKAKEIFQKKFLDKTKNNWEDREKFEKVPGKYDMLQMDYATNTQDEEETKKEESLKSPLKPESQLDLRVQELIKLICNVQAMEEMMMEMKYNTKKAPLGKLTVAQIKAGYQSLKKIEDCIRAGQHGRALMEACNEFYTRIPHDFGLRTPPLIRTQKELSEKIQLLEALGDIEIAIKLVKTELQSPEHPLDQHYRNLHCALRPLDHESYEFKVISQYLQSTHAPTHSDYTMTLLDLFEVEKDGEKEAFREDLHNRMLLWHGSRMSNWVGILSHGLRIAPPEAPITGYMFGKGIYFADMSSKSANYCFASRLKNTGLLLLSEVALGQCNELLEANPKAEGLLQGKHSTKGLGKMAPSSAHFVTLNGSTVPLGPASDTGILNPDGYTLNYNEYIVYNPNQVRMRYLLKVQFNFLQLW

[3] = target: T1, Protein mono-ADP-ribosyltransferase PARP15 (Homo sapiens, UniProt Q460N3); assay: Inhibition of human N-terminal 6His-tagged PARP15 (460 to 656 residues) expressed in Escherichia coli Rosetta2 (DE3) cells using NAD+ as substrate incubated for 10 mins by fluorescence based analysis
T1 sequence (Q460N3 whole entry): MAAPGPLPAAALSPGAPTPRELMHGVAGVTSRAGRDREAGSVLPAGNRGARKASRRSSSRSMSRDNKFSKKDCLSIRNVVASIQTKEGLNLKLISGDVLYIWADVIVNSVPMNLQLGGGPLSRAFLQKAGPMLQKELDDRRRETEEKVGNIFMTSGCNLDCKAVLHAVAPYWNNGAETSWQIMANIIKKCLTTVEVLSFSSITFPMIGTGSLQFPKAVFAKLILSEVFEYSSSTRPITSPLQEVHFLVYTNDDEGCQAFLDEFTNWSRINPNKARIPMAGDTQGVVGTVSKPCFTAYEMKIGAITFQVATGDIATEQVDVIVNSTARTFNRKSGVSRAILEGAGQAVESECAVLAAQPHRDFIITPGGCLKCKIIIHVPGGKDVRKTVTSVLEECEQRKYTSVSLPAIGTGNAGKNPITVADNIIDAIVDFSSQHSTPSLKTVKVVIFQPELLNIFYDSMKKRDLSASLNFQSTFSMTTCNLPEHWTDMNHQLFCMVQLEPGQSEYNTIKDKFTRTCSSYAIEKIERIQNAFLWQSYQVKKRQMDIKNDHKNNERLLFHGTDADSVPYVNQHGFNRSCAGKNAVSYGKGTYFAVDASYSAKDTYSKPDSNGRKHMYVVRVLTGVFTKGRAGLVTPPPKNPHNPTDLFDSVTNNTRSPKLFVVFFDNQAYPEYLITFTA

[4] = target: Protein mono-ADP-ribosyltransferase PARP14 (Homo sapiens, UniProt Q460N5); assay: Inhibition of human PARP14 using NAD+ as substrate incubated for 10 mins by fluorescence based analysis
Chain of Protein mono-ADP-ribosyltransferase PARP14 (Q460N5 whole entry, the tested form may be a part): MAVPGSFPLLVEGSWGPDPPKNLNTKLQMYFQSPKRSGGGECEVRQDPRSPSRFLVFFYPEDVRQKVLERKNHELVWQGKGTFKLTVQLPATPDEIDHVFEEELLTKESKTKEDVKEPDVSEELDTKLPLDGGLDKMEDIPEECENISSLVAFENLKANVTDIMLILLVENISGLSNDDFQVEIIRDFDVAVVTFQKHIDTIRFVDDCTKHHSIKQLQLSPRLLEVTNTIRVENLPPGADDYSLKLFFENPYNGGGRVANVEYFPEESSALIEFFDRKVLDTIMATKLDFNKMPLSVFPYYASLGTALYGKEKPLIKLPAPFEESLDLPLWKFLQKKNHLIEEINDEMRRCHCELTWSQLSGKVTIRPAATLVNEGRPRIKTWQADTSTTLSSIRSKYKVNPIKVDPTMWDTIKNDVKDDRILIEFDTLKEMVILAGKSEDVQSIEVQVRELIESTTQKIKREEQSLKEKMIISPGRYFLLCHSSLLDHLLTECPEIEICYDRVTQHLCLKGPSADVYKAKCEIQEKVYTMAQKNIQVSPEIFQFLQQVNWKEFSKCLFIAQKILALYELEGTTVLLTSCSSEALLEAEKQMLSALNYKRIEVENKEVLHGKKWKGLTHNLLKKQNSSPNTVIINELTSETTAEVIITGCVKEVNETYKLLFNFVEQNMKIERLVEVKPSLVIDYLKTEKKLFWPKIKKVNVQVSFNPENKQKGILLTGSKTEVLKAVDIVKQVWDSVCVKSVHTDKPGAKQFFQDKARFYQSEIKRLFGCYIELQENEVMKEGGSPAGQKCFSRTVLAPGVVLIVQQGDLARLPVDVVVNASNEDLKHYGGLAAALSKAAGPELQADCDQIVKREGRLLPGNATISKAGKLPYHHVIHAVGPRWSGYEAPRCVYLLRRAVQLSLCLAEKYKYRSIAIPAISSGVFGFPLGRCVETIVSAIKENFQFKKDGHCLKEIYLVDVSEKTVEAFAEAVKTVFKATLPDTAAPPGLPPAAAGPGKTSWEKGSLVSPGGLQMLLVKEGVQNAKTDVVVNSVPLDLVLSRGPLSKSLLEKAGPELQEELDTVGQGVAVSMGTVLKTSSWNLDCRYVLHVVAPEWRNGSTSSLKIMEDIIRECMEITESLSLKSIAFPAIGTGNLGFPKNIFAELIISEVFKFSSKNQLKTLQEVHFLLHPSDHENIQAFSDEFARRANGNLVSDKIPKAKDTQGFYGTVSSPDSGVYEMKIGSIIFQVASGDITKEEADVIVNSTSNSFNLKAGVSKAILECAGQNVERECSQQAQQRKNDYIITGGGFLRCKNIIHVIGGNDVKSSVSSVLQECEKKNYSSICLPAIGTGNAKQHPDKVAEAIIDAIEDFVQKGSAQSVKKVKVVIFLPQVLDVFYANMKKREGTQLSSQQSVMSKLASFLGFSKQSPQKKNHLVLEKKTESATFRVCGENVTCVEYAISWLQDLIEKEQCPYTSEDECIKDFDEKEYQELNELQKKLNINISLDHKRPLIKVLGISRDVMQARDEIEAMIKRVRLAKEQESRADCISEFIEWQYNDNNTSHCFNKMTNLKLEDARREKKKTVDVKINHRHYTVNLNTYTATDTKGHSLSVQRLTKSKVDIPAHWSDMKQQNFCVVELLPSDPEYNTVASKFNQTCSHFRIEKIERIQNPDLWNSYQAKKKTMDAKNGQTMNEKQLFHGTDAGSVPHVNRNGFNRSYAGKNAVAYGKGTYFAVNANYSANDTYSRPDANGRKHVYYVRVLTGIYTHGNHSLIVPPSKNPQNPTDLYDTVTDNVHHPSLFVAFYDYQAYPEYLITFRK

[5] = target: T2, Poly [ADP-ribose] polymerase tankyrase-2 (Homo sapiens, UniProt Q9H2K2); assay: Inhibition of human N-terminal 6His-tagged TNKS2 (1030 to 1317 residues) expressed in Escherichia coli Rosetta2 (DE3) cells using NAD+ as substrate incubated for 10 mins by fluorescence based analysis
T2 sequence (Q9H2K2 whole entry): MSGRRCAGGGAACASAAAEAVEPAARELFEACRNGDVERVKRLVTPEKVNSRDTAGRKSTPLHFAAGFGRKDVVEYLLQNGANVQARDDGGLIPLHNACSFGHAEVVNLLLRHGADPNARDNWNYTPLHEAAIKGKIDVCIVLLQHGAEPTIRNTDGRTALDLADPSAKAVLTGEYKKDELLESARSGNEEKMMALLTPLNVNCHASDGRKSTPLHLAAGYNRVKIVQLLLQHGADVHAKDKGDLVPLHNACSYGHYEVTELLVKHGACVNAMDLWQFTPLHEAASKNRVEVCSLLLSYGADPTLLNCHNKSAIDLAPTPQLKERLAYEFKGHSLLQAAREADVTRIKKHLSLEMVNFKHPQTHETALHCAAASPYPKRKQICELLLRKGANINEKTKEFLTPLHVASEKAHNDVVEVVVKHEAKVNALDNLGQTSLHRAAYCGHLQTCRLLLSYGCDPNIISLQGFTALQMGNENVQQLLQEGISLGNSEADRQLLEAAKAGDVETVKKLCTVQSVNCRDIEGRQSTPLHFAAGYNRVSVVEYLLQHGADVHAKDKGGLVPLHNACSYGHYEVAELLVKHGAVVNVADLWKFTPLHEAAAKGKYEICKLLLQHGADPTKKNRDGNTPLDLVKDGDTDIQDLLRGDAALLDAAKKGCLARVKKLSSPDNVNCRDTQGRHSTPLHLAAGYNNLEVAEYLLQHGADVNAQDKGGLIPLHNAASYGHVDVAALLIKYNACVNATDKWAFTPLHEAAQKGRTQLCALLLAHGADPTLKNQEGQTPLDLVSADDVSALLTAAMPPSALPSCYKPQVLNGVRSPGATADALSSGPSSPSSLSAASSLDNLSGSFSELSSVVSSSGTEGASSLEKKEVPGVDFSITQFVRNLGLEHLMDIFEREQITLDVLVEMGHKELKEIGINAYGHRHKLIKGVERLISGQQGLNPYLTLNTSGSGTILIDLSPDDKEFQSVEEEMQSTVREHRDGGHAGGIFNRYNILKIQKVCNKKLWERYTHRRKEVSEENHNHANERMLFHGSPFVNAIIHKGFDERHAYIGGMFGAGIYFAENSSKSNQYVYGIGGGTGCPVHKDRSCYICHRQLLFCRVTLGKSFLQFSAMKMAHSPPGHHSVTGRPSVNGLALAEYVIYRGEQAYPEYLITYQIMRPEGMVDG

[6] = target: T3, Protein mono-ADP-ribosyltransferase PARP10 (Homo sapiens, UniProt Q53GL7); assay: Inhibition of human PARP-10 using NAD+ as substrate incubated for 10 mins by fluorescence based analysis
T3 sequence (Q53GL7 whole entry): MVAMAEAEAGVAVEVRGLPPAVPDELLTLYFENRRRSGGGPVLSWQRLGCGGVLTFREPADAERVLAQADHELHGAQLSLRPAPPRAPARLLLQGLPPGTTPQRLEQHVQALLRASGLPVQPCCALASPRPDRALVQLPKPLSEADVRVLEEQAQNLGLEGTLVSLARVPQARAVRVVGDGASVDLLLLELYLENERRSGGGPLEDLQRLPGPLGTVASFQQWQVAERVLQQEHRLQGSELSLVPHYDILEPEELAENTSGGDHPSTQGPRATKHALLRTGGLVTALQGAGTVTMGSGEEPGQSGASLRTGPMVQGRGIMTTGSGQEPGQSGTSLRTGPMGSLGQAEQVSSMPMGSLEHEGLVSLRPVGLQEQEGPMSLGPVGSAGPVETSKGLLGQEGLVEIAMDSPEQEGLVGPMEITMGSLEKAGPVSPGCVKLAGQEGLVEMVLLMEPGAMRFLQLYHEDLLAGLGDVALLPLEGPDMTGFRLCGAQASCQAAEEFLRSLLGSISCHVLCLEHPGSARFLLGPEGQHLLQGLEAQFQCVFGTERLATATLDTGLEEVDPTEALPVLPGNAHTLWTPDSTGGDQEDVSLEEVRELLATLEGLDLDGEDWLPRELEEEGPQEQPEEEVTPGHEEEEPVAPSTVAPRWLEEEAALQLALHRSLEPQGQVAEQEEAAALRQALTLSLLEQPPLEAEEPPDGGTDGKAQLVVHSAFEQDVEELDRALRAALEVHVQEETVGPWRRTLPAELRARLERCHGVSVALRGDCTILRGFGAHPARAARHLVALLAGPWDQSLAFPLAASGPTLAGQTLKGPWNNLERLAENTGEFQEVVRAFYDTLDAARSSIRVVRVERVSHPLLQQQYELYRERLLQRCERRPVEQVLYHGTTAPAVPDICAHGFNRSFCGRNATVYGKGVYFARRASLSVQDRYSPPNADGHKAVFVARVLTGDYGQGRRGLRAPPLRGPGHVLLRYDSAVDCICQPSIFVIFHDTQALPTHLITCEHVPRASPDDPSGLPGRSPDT

[7] = tested on: HEK-293T; assay: Cytotoxicity against HEK293T cells assessed as reduction in cell viability at 100 uM measured after 24 hrs by WST-1 assay; format: toxicity, cell-based; details: human
[8] = tested on: HeLa; assay: Rescue of cell viability in human HeLa cells expressing wild type PARP10 at upto 10 uM incubated for 10 to 12 days by methylene blue dye based colony formation assay; format: functional
[9] = target: T1, Protein mono-ADP-ribosyltransferase PARP15; assay: Inhibition of PARP15 (unknown origin)

Row | SMILES | IC50 [2] [µM] | IC50 [3] [µM] | IC50 [4] [µM] | IC50 [5] [µM] | IC50 [6] [µM] | EC50 [8] [µM] | IC50 [9] [µM] | Activity [1] | Activity [7]
1 | NC(=O)c1ccc(OCC2CCCCC2)cc1 | > 100 | 3.6 | > 100 | > 100 | 1.7 | – | – | Non-Toxic | –
2 | NC(=O)c1ccc(OCC2CCC2)cc1F | > 100 | 6 | > 10 | > 100 | 0.62 | – | – | Non-Toxic | –
3 | COc1ccccc1COc1ccc(C(N)=O)c(F)c1 | > 100 | > 10 | 6.8 | > 100 | 8.2 | – | – | Non-Toxic | –
4 | Cc1cccc(C(=O)N[C@H](C(N)=O)C(=O)c2ccc3c(=O)[nH][nH]c(=O)c3c2)c1 | – | – | – | – | – | – | 0.2 | – | –
5 | NC(=O)c1ccc(OCC2CCCCC2)cc1F | > 100 | > 10 | > 10 | > 100 | 0.96 | – | – | Non-Toxic | –
6 | COc1cc(OCC2CCCCC2)ccc1C(N)=O | > 100 | 5 | > 100 | > 100 | 4.4 | – | – | Non-Toxic | –
7 | NC(=O)c1ccc(OCC2CCCCC2)cc1OCc1ccccn1 | > 100 | > 10 | > 10 | > 100 | > 10 | – | – | Non-Toxic | –
8 | NC(=O)c1ccc(OCC2CCCC2)cc1 | > 100 | 3.8 | > 10 | > 100 | 0.59 | – | – | Non-Toxic | –
9 | NC(=O)c1ccc(OCC2CCC2)cc1OCCN1CCNCC1 | > 100 | > 10 | > 10 | > 100 | > 10 | – | – | Non-Toxic | –
10 | NC(=O)c1ccc(OCC2CC2)cc1 | 53 | 4.8 | > 10 | > 100 | 0.6 | – | – | Non-Toxic | –

Now from value to compound, other results behind:

Row | IC50 [2] [µM] | IC50 [3] [µM] | IC50 [4] [µM] | IC50 [5] [µM] | IC50 [6] [µM] | EC50 [8] [µM] | IC50 [9] [µM] | SMILES | Activity [1] | Activity [7]
11 | > 100 | 0.37 | > 10 | > 100 | 0.16 | – | – | O=c1[nH][nH]c(=O)c2cc(OCC3CCC3)ccc12 | Non-Toxic | –
12 | > 100 | 2.6 | > 10 | > 100 | 1.9 | – | – | COc1cc(OCc2ccccc2F)ccc1C(N)=O | Non-Toxic | Toxic
13 | – | 0.4 | – | – | 0.14 | 1.5 | – | O=c1[nH][nH]c(=O)c2cc(OCC3CCCCC3)ccc12 | Non-Toxic | –
14 | > 100 | 1.2 | > 10 | > 100 | 0.31 | – | – | O=c1[nH][nH]c(=O)c2cc(OCC3CC3)ccc12 | Non-Toxic | –
15 | > 100 | 2.4 | > 10 | > 100 | 1.6 | – | – | NC(=O)c1ccc(OCc2cncs2)cc1 | Non-Toxic | –
16 | > 100 | 2.5 | > 100 | > 100 | > 10 | – | – | COc1cc(OCc2cccc(Br)c2)ccc1C(N)=O | Non-Toxic | –
17 | – | 0.37 | – | – | 0.15 | 1.6 | – | O=c1[nH][nH]c(=O)c2cc(OCc3ccccc3F)ccc12 | Non-Toxic | –
18 | – | 0.4 | – | – | 0.16 | 0.95 | – | O=c1[nH][nH]c(=O)c2cc(OCc3ccsc3)ccc12 | Non-Toxic | –
19 | > 100 | 0.32 | > 10 | > 100 | 0.13 | – | – | O=c1[nH][nH]c(=O)c2cc(OCC3CCCC3)ccc12 | Non-Toxic | –
20 | > 100 | 0.6 | > 10 | > 100 | 1.5 | – | – | NC(=O)c1ccc(OCc2cccc(Br)c2)cc1F | Non-Toxic | –
21 | > 100 | 1.3 | > 100 | > 100 | 1.2 | – | – | O=c1[nH][nH]c(=O)c2cc(OCc3cccc(Br)c3)ccc12 | Non-Toxic | –
22 | > 100 | 2.2 | > 100 | > 100 | 5 | – | – | COc1cc(OCc2cccc3ccccc23)ccc1C(N)=O | Non-Toxic | –
